In patent US20230121313A1 (priority 2019, published 2023):
Counter-ions that a name gives are not always drawn.

How the values were obtained:
[1] = Solubility of esketamine HCl; conditions: for solubility: pH 4.5, aqueous buffer
Method: The clinical investigational product is an aqueous solution of the drug substance, esketamine hydrochloride (HCl). This formulation is administered intranasally to patients using a dual nasal spray device, which delivers one spray into each nostril. […] The formulation was stored at 37° C. for stability reasons until dosing.

[2] = tested on: subjects with MDD at imminent risk for suicide; assay: Beck Scale for Suicidal Ideation (BSS), Study […]2001; format: in vivo, human; conditions: 84 mg; for BSS total score change, Diff. of LS Means (minus Placebo): ANCOVA LOCF; for BSS total score, change from baseline, mean / BSS total score, change from baseline, median / BSS total score, mean / BSS total score, median: LOCF, N 34
Excerpt: (§1) • a. Changes from baseline to Day 2 and Day 25 for the MADRS total score • b. Changes from baseline to Day 1 4-hours postdose, Day 2 and Day 25 for the MADRS Suicide Item • c. Changes from baseline to Day 1 4-hours postdose, Day 2, and Day 25 for the clinical global judgment of suicide risk from the Suicide Ideation and Behavior Assessment Tool (SIBAT) • d. Sustained response (Onset of Clinical Response) defined as at least 50% reduction from baseline in MADRS total score with onset on Day 1 that is maintained through the end of the double-blind phase (Day 25) • e. Changes from baseline to Day 1 4-hours postdose, Day 2, and Day 25 for the Beck Scale for Suicidal Ideation (BSS) • f. Changes from baseline to Day 1 4-hours postdose and Day 25 for the Beck Hopelessness Scale
The BSS is a 21-item self-reported instrument to detect and measure the severity of suicidal ideation in adults and adolescents aged 17 years and older. The BSS total score represents the severity of suicide ideation, and it is calculated by summing the ratings of the first 19 items; the total score ranges from 0 to 38, with a higher score representing greater suicide ideation. Increasing scores reflect increases in suicidal risk.

glutamate NMDA receptor = conditions: cited from earlier work
adult subjects with TRD = conditions: human, in vivo, other: intranasal
Method: The MOAA/S was used to measure treatment-emergent sedation, with correlation to levels of sedation defined by the American Society of Anesthesiologists (ASA) continuum. The MOAA/S scores range from 0=no response to painful stimulus (corresponds to ASA continuum for general anesthesia) to 5=readily responds to name spoken in normal tone (awake; corresponds to ASA continuum for minimal sedation).
On each intranasal dosing day, the MOAA/S was performed every 15 minutes from pre-dose to t=+1.5 hours post-dose. If the score was ≤3 at any time during the 1.5 hours post-dose interval, the MOAA/S was performed every 5 minutes until a score of 4 is reached (at which point a frequency of every 15 minutes can be resumed until t=+1.5 hours post dose). […] For subjects with a score of 4, the assessment was repeated every 15 minutes. […]
The Modified Observer's Assessment of Alertness/Sedation (MOAA/S) was used to measure treatment-emergent sedation with correlation to levels of sedation defined by the American Society of Anesthesiologists (ASA) continuum. The MOAA/S scores ranged from 0 (No response to painful stimulus; corresponds to ASA continuum for general anesthesia) to 5 (Readily responds to name spoken in normal tone [awake]; corresponding to ASA continuum for minimal sedation).

[3] = tested on: patients with treatment-resistant depression (TRD); assay: GAD-7, phase 2 dose-response study in TRD; format: in vivo, human
Method: Overall illness severity was assessed on the Clinical Global Impression of Severity (CGI-S) scale (Guy, “ECDEU Assessment Manual for Psychopharmacology-Revised (DHEW Publ No ADM 76-338)”, Rockville, Md.: U.S. Department of Health, Education, and Welfare, Public Health Service, Alcohol, Drug Abuse, and Mental Health Administration, NIMH Psychopharmacology Research Branch, Division of Extramural Research Programs; 1976, pp 218-222). Participants assessed their severity of anxiety on the Generalized Anxiety Disorder 7-item (GADS-7) Scale (See, Tables 157 and 158). See, Spitzer, “A brief measure for assessing generalized anxiety disorder—the GAD-7”, Arch. Intern. Med., 2006, 166(10):1092-1097.

[4] = tested on: subjects with MDD at imminent risk for suicide; assay: MADRS total score, Study […]2001 (change, sustained response, response, remission); format: in vivo, human; conditions: for MADRS total score change, Diff. of LS Means (minus Placebo): ANCOVA LOCF; for MADRS total score, change from baseline, mean / MADRS total score, change from baseline, median / MADRS total score, mean / MADRS total score, median: LOCF, ITT N = 35
Excerpt: Primary efficacy variable/Primary Time point: Change from baseline (Day 1, predose) to Day 1, 4-hours postdose in MADRS total score. The MADRS consists of 10 items that cover all of the core depressive symptoms, with each item scoring from 0 (item is not present or is normal) to 6 (severe or continuous presence of the symptom). A higher score represents a more severe condition.
as §1
The primary efficacy endpoint is the change in MADRS total score from baseline to Day 1: 4-hours postdose. MADRS total scores range from 0 to 60. […] As this is a phase 2a proof-of-concept study, statistical significance is based on a two-sided alpha level of 0.20. All p-values presented in this document are two-sided.
Sustained response is defined as at least 50% reduction from baseline in MADRS total score with onset on Day 1: 4 hours postdose that is maintained through the end of the double-blind phase (Day 25). Four subjects in the esketamine 84 mg group and 2 subjects in the placebo group had sustained response throughout the double-blind phase.

subjects with TRD [5] = conditions: human, in vivo, other: intranasal
Method: Transient blood pressure increases peaked for the esketamine group at approximately 40 minutes post dose and returned closer to predose levels by 1.5 hours post dose.

subjects with TRD [6] = conditions: human, in vivo, other: intranasal; remark: listed apart in the source
Method: (§2) The Clinician Administered Dissociative States Scale (CADSS) was measured prior to the start of each dose, at 40 minutes, and 1.5 hours postdose.

subjects with TRD [7] = conditions: human, in vivo, other: intranasal; remark: listed apart in the source
Method: as §2

CN[C@]1(c2ccccc2Cl)CCCCC1=O [esketamine HCl, (S)-2-(2-chlorophenyl)-2-(methylamino)cyclohexanone hydrochloride]
solubility ([1]; aqueous solution): 207 mg/mL | Maximum solubility expressed as esketamine base ([1]; room temperature, pH 4.5, factor 1.15): 180 mg esketamine base/mL | solubility ([1]; water): 180 mg/mL

CN[C@]1(c2ccccc2Cl)CCCCC1=O [esketamine, (S)-2-(2-chlorophenyl)-2-(methylamino)cyclohexanone]
BSS total score change, Diff. of LS Means (minus Placebo) ([2]; Day 1 (DB): 4 H): −2.3 | BSS total score, change from baseline, mean ([2]; Day 1 (DB): 4 H): −10.2 | BSS total score, change from baseline, median ([2]; Day 1 (DB): 4 H): −8.0 | BSS total score, mean ([2]; Day 1 (DB): 4 H): 13.8 | BSS total score, median ([2]; Day 1 (DB): 4 H): 16.5 | BSS total score change, Diff. of LS Means (minus Placebo) ([2]; Day 2 (DB)): −1.9 | BSS total score, change from baseline, mean ([2]; Day 2 (DB)): −12.9 | BSS total score, change from baseline, median ([2]; Day 2 (DB)): −11.5 | BSS total score, mean ([2]; Day 2 (DB)): 11.1 | BSS total score, median ([2]; Day 2 (DB)): 13.0 | BSS total score change, Diff. of LS Means (minus Placebo) ([2]; End Point (DB)): −1.7 | BSS total score, change from baseline, mean ([2]; End Point (DB)): −19.3 | BSS total score, change from baseline, median ([2]; End Point (DB)): −21.0 | BSS total score, mean ([2]; End Point (DB)): 4.7 | BSS total score, median ([2]; End Point (DB)): 0.0 | BSS total score change vs placebo ([2]; […]2001, Day 1: 4 hours postdose, Day 2 (DB), End Point (DB)): no statistically significant differences | Affinity for the glutamate NMDA receptor in vitro relative to R-ketamine (glutamate NMDA receptor): 3 to 4 fold | Sedation (MOAA/S) resolved by (postdose) (adult subjects with TRD): ≤ 1.5 h | GAD-7 LS mean difference from placebo (SE) ([3]; Period 1, 28 mg): −0.21 (1.461) | GAD-7 change from baseline to end point, LS mean (SE) ([3]; Period 1, 28 mg): −1.5 (1.34) | GAD-7 LS mean difference from placebo (SE) ([3]; Period 1, 56 mg): −1.40 (1.478) | GAD-7 change from baseline to end point, LS mean (SE) ([3]; Period 1, 56 mg): −3.1 (1.34) | GAD-7 LS mean difference from placebo (SE) ([3]; Period 1, 84 mg): −3.44 (1.414) | GAD-7 change from baseline to end point, LS mean (SE) ([3]; Period 1, 84 mg): −5.1 (1.30) | GAD-7 LS mean difference from placebo (SE) ([3]; Period 2, 28 mg): −2.02 (1.089) | GAD-7 change from baseline to end point, LS mean (SE) ([3]; Period 2, 28 mg): −1.6 (0.87) | GAD-7 LS mean difference from placebo (SE) ([3]; Period 2, 56 mg): 0.60 (1.033) | GAD-7 change from baseline to end point, LS mean (SE) ([3]; Period 2, 56 mg): 1.0 (0.98) | GAD-7 LS mean difference from placebo (SE) ([3]; Period 2, 84 mg): −1.25 (1.205) | GAD-7 change from baseline to end point, LS mean (SE) ([3]; Period 2, 84 mg): −0.9 (1.02) | MADRS total score change, Diff. of LS Means (minus Placebo) ([4]; 84 mg, Day 1 (DB): 4 H): −5.3 | MADRS total score, change from baseline, mean ([4]; 84 mg, Day 1 (DB): 4 H): −13.4 | MADRS total score, change from baseline, median ([4]; 84 mg, Day 1 (DB): 4 H): −14.0 | MADRS total score, mean ([4]; 84 mg, Day 1 (DB): 4 H): 25.1 | MADRS total score, median ([4]; 84 mg, Day 1 (DB): 4 H): 23.0 | MADRS total score change, Diff. of LS Means (minus Placebo) ([4]; 84 mg, Day 2 (DB)): −7.2 | MADRS total score, change from baseline, mean ([4]; 84 mg, Day 2 (DB)): −19.3 | MADRS total score, change from baseline, median ([4]; 84 mg, Day 2 (DB)): −19.0 | MADRS total score, mean ([4]; 84 mg, Day 2 (DB)): 19.2 | MADRS total score, median ([4]; 84 mg, Day 2 (DB)): 18.0 | MADRS total score change, Diff. of LS Means (minus Placebo) ([4]; 84 mg, End Point (DB)): −4.5 | MADRS total score, change from baseline, mean ([4]; 84 mg, End Point (DB)): −26.4 | MADRS total score, change from baseline, median ([4]; 84 mg, End Point (DB)): −25.0 | MADRS total score, mean ([4]; 84 mg, End Point (DB)): 12.1 | MADRS total score, median ([4]; 84 mg, End Point (DB)): 8.0 | Day 25 sustained response based on MADRS total score: No, subjects (%) ([4]; 84 mg, ITT): 88.2% | Day 25 sustained response based on MADRS total score: Yes, subjects (%) ([4]; 84 mg, at least 50 percent reduction with onset on Day 1 maintained through Day 25, ITT): 11.8% | Subjects with sustained response (≥50% MADRS reduction from Day 1 4 h through Day 25) ([4]; […]2001, 84 mg): Four | MADRS total score: mean change from baseline (SD) ([4]; […]2001, 84 mg, Day 1: 4-hours postdose): −13.4 (9.03) | MADRS total score: mean change from baseline (SD) ([4]; […]2001, 84 mg, Day 2 (DB)): −19.3 (12.02) | MADRS total score: mean change from baseline (SD) ([4]; […]2001, 84 mg, End Point (DB)): −26.4 (14.52) | Subjects who discontinued due to lack of efficacy ([4]; […]2001, 84 mg, double-blind phase): 1 subject | MADRS total score: least-square mean difference (SE) from placebo, ANCOVA ([4]; […]2001, esketamine 84 mg, Day 1, 4-hours postdose): −5.3 (2.10) | Blood pressure returned closer to predose levels by (post dose) (subjects with TRD [5]): ≤ 1.5 h | Transient blood pressure increases: time of peak post dose (subjects with TRD [5]): approximately 40 minutes | CADSS dissociative and perceptual change symptoms resolved by (postdose) (subjects with TRD [6]): ≤ 1.5 h | CADSS dissociative/perceptual change symptoms resolved by (post dose) (subjects with TRD [7]): ≤ 1.5 h
